Data as given in patent US11643405B2, “Compound for treatment or prevention of liver diseases” (JIANGSU ATOM BIOSCIENCE AND PHARMACEUTICAL CO., LTD., priority 2018, dated 2023).

How the values were obtained:
[1] = system: zebrafish non-alcoholic fatty liver; assay: Fat reduction or elimination effect on thioacetamide-induced zebrafish non-alcoholic fatty liver (Oil Red O staining); assay type: in vivo; conditions: for The total optical density of liver fat: mean ± SE, n = 10
Description: 40 mM stock solution of test compounds 4, 5, 6, 7, 46, 67, 78, 85, 92 and 101 were prepared with DMSO, and stored in a refrigerator at −20° C. The positive control compound S-adenosylmethionine (SAM) was purchased from Aladdin Reagent (Shanghai) Co., Ltd., with the batch number F1523051, which was prepared into a 50 mM stock solution with DMSO. The control compound silymarin was purchased from Shanghai Dibai Biotechnology Co., Ltd., with the batch number EE09, which was prepared into a 40 mM stock solution with DMSO. Thioacetamide was purchased from Sigma-Aldrich, with the batch number BCBV3031, which wasprepared into a 1 M stock solution with DMSO. Oil Red O was purchased from Sigma-Aldrich, with the batch number SLBP5248V. 4% paraformaldehyde was purchased from Dingguo Biotechnology Co., Ltd., with the batch number 773001800. Propylene glycol was purchased from Sinopharm Chemical Reagent Co., Ltd., with the batch number 20170615.
The melanin allele mutant translucent Albino line zebrafish was reproduced in natural paired mating. The fish age was 3 days after fertilization, with 30 fish per experimental group.
The above zebrafish were raised in fish farming water at 28° C. (water quality: 200 mg instant sea salt was added to 1 L of reverse osmosis water, conductivity was 480-510 μS/cm; pH was 6.9-7.2; hardness was 53.7-71.6 mg/L CaCOs), the experimental animal use license number was: SYXK (Zhejiang) 2012-0171. Feeding management met the requirements of international AAALAC certification.
Three days after fertilization, the normal melanin allele mutant translucent Albino strain of zebrafish was randomly selected and placed in a six well plate with 30 fish per well (i.e. each experimental group), and then thioacetamide with the final concentration of 7 mM was used to treat zebrafish for 72 hours to establish the non-alcoholic fatty liver model.
The zebrafish were transferred to a six-well plate, with 30 fish per well (i.e., each experimental group) randomly. Non-alcoholic fatty liver model in zebrafish were induced by thioacetamide. 40 mM test compounds 4, 5, 6, 7, 46, 67, 78, 85, 92 and 101 were quantitatively transferred to a six-well plate, and diluted with water to the corresponding concentration. Test compounds 4, 5, 6 and 7 were formulated into two dose groups with final concentration of 100 μM and 200 μM, respectively; test compound 46 was formulated into a dose group with final concentration of 200 μM; test compounds 67, 78, 85, 92 and 101 were formulated into dose groups with a final concentration of 100 μM; 50 mM positive control SAM was formulated with water to a dose group with final concentration of 50 μM, and a 40 mM positive control silymarin was formulated with water to two concentration dose groups with final concentration of 100 μM and 200 μM. A normal control group (zebrafish treated with fish farming water) and a model control group were set at the same time, and the total volume of each well was 3 mL. Except for the normal control group, the other experimental groups were treated with thioacetamide for 72 hours and stained with Oil Red O. After staining, 10 zebrafish were randomly selected from each experimental group and photographed under a dissecting microscope, NIS-Elements D 3.10 advanced image processing software was used to perform image analysis and collect data, the total optical density (S) of zebrafish liver fat was statistically analyzed, and for the inhibitory effect of each experimental group on liver steatosis of zebrafishwas evaluated by the following formula, the results of statistical analysis were expressed as mean±SE: Inhibition rate of liver steatosis (%)=[S(model control group)−S(test compound group)]/[S(model control group)−S(normal control group)]×100%
Statistical analysis was performed using analysis of variance and Dunnett's T-test, and p<0.05 indicated a significant difference. […]

in vivo = conditions: both sexes, ICR, mouse, po
Description: The test compound was compound 7; the positive control silymarin was purchased from Shanghai Dibai Biotechnology Co., Ltd., with the batch number HH06. Immediately before use, the suspension was prepared with normal saline and ultrasound to prepare a suspension with a corresponding concentration.
Low-dose group (1.5 g/kg) solution preparation: the quantitative test compound 7 or positive control compound was precisely weighed, and a certain amount of normal saline was added to prepare the oral suspension solution with the concentration of 75 mg/mL. The administration volume was 20 mL/kg.
High-dose group (3.0 g/kg) solution preparation: the quantitative test compound 7 or positive control compound was precisely weighed, and a certain amount of normal saline was added to prepare the oral suspension solution with the concentration of 150 mg/mL. The administration volume was 20 mL/kg.
ICR mice, SPF grade, weight: 16-18 g, 6-8 weeks old. Provided by Nantong University, laboratory animal production license number: SCXK (Su) 2014-0001; laboratory animal use license: SYXK (Su) 2017-0007.
16 ICR mice were randomly divided into compound 7 low-dose group, compound 7 high-dose group, silymarin low-dose group and silymarin high-dose group, with 4 mice in each group, half male and half female. […]

COc1cc(C2Oc3cc(C4Oc5cc(O)cc(O)c5CC4O)cc(O)c3OC2CO)ccc1O (stereo not shown) [Compound 7, 2-{8-hydroxy-3-(4-hydroxy-3-methoxyphenyl)-2-hydroxymethyl-2,3-dihydrobenzo[b][1,4]dioxan-6-yl}chroman-3,5,7-triol]
Therapeutic effect on non-alcoholic fatty liver of zebrafish (in words) ([1]; 100 μM): significant therapeutic effects
The total optical density of liver fat ([1]; 100 μM): 17835 ± 351 Pixels
Therapeutic effect on zebrafish non-alcoholic fatty liver (in words) ([1]; 200 μM): significant therapeutic effect
The total optical density of liver fat ([1]; 200 μM): 18090 ± 437 Pixels
inhibition at 100 µM ([1]; Danio rerio, 100 μM, read-out: Inhibition rate of liver steatosis): 98%
inhibition at 200 µM ([1]; Danio rerio, 200 μM, read-out: Inhibition rate of liver steatosis): 93%
MTD at 14 days (in vivo): 3000 mg/kg
